Measurements taken from article PMC12155845, “Antimicrobial Activity of Copper(II), Nickel(II) and Zinc(II) Complexes with Semicarbazone and Thiosemicarbazone Ligands Derived from Substituted Salicylaldehydes” (Molecules, 2025).
“Also recorded” adds a separate entry of the source. Where two headings read alike, the source gives them in different places.

Columns and labels:
pmaxGFP plasmid DNA = experiment: In vitro DNA cleavage/mobility shift assay (agarose gel electrophoresis); assay type: biochemical; conditions: for Plasmid DNA cleavage in presence of H2O2 (in words): 100 µM of sample, 200 ng plasmid DNA, 10 mM H2O2, 37 °C, 2 h
Protocol: The nuclease activity of the metal complexes was investigated by means of gel electrophoresis after incubating the reaction mixtures (100 µM of sample and 200 ng of plasmid DNA) at 37 °C for 2 h. […] Thus, the assays with the metal complexes were performed in the absence and presence of H2O2 at 10 mM to check whether the DNA cleavage and damage take place through a hydrolytic or an oxidative mechanism.
Studies of the interactions between the metal compounds and plasmid DNA were carried out by agarose gel electrophoresis. Thus, 200 ng of pmaxGFP plasmid, 3527 bps, (Lonza, Basel, Switzerland) were incubated with the metal compounds at 100 μM in the absence or presence of 10 mM of H2O2 in Tris-HCl buffer (NaCl 50 mM, Tris-HCl 5 mM, pH 7.20). The mixture was incubated at 37 °C for 2 h, then the reactions were quenched by adding 5 μL of the loading buffer solution and analyzed by 1% agarose gel electrophoresis.

[1] = tested on: Staphylococcus aureus ATCC 25923; experiment: Microdilution antimicrobial assay (CLSI), S. aureus; assay type: cell-based; conditions: for Antimicrobial activity against S. aureus (in words): up to 100 μM; for Percentage values of microbial growth, S. aureus: compound at 100 μM, mean and standard deviation, 24 h, relative to positive controls; for Microbial growth, S. aureus (Table S1): ligand at 100 μM, mean values and standard deviations
Protocol: (§1) Reference strains of Staphylococcus aureus (ATCC 25923), Escherichia coli (ATCC 25922) and Candida albicans (ATCC 10231) were used in this study as model systems. These laboratory strains were purchased from the American Type Culture Collection (ATCC) (Manassas, VA, USA). […] The antimicrobial properties of the metal complexes were determined by a previously established microdilution method in agreement with the Clinical and Laboratory Standard Institute (CLSI) guidelines. […] The metal complexes were two-fold serially diluted and tested in the range of 100-0.19 μM. Positive controls (in regular media), negative controls (only compounds), solvent controls (DMSO dilutions) and the reference drugs were included in the tests. The plate was incubated at 37 °C for 24 h, and the OD630nm was measured.

[2] = tested on: Escherichia coli ATCC 25922; experiment: Microdilution antimicrobial assay (CLSI), E. coli; assay type: cell-based; conditions: for Percentage values of microbial growth, E. coli: mean and standard deviation, 24 h; for Microbial growth, E. coli (Table S1): ligand at 100 μM, mean values and standard deviations
Protocol: as §1

[3] = tested on: Candida albicans ATCC 10231; experiment: Microdilution antifungal assay (CLSI), C. albicans; assay type: cell-based; conditions: for Percentage values of microbial growth, C. albicans: mean and standard deviation
From the text: Reference strains of Staphylococcus aureus (ATCC 25923), Escherichia coli (ATCC 25922) and Candida albicans (ATCC 10231) were used in this study as model systems. These laboratory strains were purchased from the American Type Culture Collection (ATCC) (Manassas, VA, USA). The cultures were routinely grown on 5% blood agar plates or Sabouraud Dextrose agar plates (Biolife Italiana S.r.l., Milan, Italy) and used freshly in the assays.
The antimicrobial properties of the metal complexes were determined by a previously established microdilution method in agreement with the Clinical and Laboratory Standard Institute (CLSI) guidelines. […] The metal complexes were two-fold serially diluted and tested in the range of 100–0.19 µM. Positive controls (in regular media), negative controls (only compounds), solvent controls (DMSO dilutions) and the reference drugs were included in the tests. The plate was incubated at 37 °C for 24 h, and the OD630nm was measured.

[4] = tested on: HEL 299 fibroblasts (ATCC-CCL-137); experiment: Cell viability and proliferation assay (WST8/CCK-8); assay type: cell-based, human; conditions: for Percentage values of cell viability, HEL 299: compound at 100 μM, mean and standard deviation, relative to untreated controls; for Cell proliferation, HEL 299 (Table S1): ligand at 100 μM, mean values and standard deviations
Protocol: HEL 299 cells, obtained from the American Type Culture Collection (ATCC-CCL-137), were selected to investigate the effect of the metal complexes on non-malignant human fibroblasts. Briefly, cells were cultured in Eagle’s Minimum Essential Medium (EMEM) supplemented with 10% fetal bovine serum (FBS), 100 U/mL penicillin and 100 µg/mL streptomycin at 37 °C with 5% CO2. For the biological assays, cells were grown in 96-well plates at 10^4 cells/well. After 24 h of incubation at 37 °C, the monolayer was treated with 100 µL of medium containing the 2-fold serial dilutions of the compounds in the range 100–0.19 µM. Cell viability was assessed by a colorimetric WST8-based assay according to the manufacturer’s instructions (CCK-8, Cell Counting Kit-8, Dojindo Molecular Technologies, Rockville, MD, USA) by measuring the OD at 450 nm. Data are expressed as the percentage of cell viability relative to the untreated controls. The CC50 was obtained on the corresponding dose–response curves generated as previously reported for IC50 values.

[5] = tested on: human red blood cells (hRBCs); experiment: Hemolytic activity assay; assay type: cell-based
Protocol: The hemolytic activity of the metal complexes was evaluated as the amount of hemoglobin released by the disruption of human red blood cells (hRBCs). Briefly, a suspension of hRBCs (4% w/v in PBS) was prepared from the peripheral blood of anonymous blood donors available for research purposes. […] Then, the supernatants were spectrophotometrically evaluated at OD405nm. Untreated hRBCs (in PBS) and hRBCs incubated with 1% Triton X-100 were employed as negative and positive controls, respectively. The hemolysis percentage was calculated as [OD405nm (sample) − OD405nm (negative control)]/[OD405nm (positive control) − OD405nm (negative control)] × 100. Minimal hemolytic concentrations (MHCs) were defined as the compound concentration causing 10% hemolysis.

[6] = mean values and 95% Confidence Interval, dose–response
[7] = compound at 100 μM, 1 h at 37 °C
[8] = ligand at 100 μM, mean values and standard deviations

Molecule	Percentage values of microbial growth, E. coli ([2]; compound at 100 μM)	Percentage values of microbial growth, C. albicans ([3]; compound at 100 μM, 24 h)	Percentage values of cell viability, HEL 299 [4]	Percentage values of hemolytic activity, hRBCs [5, 7]	Percentage values of microbial growth, S. aureus [1]	Microbial growth, S. aureus (Table S1) [1]	Microbial growth, E. coli (Table S1) [2]	Microbial growth, C. albicans (Table S1) [3, 8]	Cell proliferation, HEL 299 (Table S1) [4]	also measured
N.N.[Cl][Pt][Cl] [CP, cisplatin, reference compound]										Binding interaction with plasmid DNA, electrophoresis mobility (in words) (pmaxGFP plasmid DNA; cisplatin at 500, 100 and 50, 37°C for 2 h, pmaxGFP): cause a shift of the electrophoresis mobility
CCNC(=S)N/N=C/c1cccc(OC)c1[O-].[Cl-].[Cu+2] [Compound 4]	110.5 ± 4.8%	15.6 ± 5.5%	9.1 ± 1.1%	<5%						IC50 [1, 6]: 3.5 µM; Antimicrobial activity against S. aureus (in words) [1]: completely inhibited; also recorded: good activity; also recorded: micromolar activity; IC50 [3, 6]: 54.8 µM; Antimicrobial activity against C. albicans (in words) ([3]; up to 100 μM): slightly interfered; CC50 [4, 6]: 1.4 µM; Plasmid DNA cleavage in presence of H2O2 (in words) (pmaxGFP plasmid DNA): extensive damage to the plasmid DNA
COc1cccc(/C=N/NC(N)=O)c1[O-].[Cl-].[Cu+2] [Compound 5, [Cu(HL3)Cl]∙0.5H2O∙0.5CH3OH]	55.8 ± 0.5%	77.8 ± 2.0%	20.3 ± 0.6%	<5%	83.6 ± 1.4%					Antimicrobial activity against S. aureus (in words) [1]: lack of antibacterial activity; Reduction of E. coli growth compared to the untreated cells ([2]; compound at 100 μM): 44.2%; Antimicrobial activity against E. coli (in words) ([2]; up to 100 μM): lack of antibacterial activity; Plasmid DNA cleavage in presence of H2O2 (in words) (pmaxGFP plasmid DNA): degrade plasmid DNA
COc1cc(S(=O)(=O)[O-])cc(/C=N/NC(N)=S)c1[O-].[Cl-].[Cu+2].[Na+] [Compound 8]	104.1 ± 9.3%	89.9 ± 5.3%	90.4 ± 0.6%	<5%	106.3 ± 1.6%					
CCNC(=S)N/N=C/c1cc(S(=O)(=O)[O-])cc(OC)c1[O-].[Cl-].[Cu+2].[Na+] [Compound 9]	96.6 ± 1.1%	91.4 ± 2.5%	85.8 ± 1.7%	<5%	104.8 ± 0.7%					
COc1cc(S(=O)(=O)[O-])cc(/C=N/NC(N)=O)c1[O-].[Cl-].[Cu+2].[Na+] [Compound 10, [NaCu(HL6)Cl]]	99.8 ± 1.8%	71.6 ± 1.3%	63.5 ± 3.8%	<5%	97.8 ± 1.4%					
CCCCCCCC(=O)N/N=C/c1cc(S(=O)(=O)[O-])cc(OC)c1[O-].[Cl-].[Cu+2].[Na+] [Compound 13, [NaCu(HL7)Cl]]	105.2 ± 2.0%	81.7 ± 5.4%	88.7 ± 0.9%	<5%	99.8 ± 3.6%					Plasmid DNA cleavage in presence of H2O2 (in words) (pmaxGFP plasmid DNA): only exception
CCNC(=S)N/N=C/c1cccc(OC)c1O [Compound H2L2]						96.8 ± 3.5	92.8 ± 3.1	83.3 ± 14.4	97.2 ± 13.2	
OC(Cn1cncn1)(Cn1cncn1)c1ccc(F)cc1F [FCZ, fluconazole, reference compound]										Microbial growth, C. albicans (Table S1) ([3]; fluconazole): 10.0 ± 0.6; Percentage values of microbial growth, C. albicans ([3]; fluconazole at 1.6 μM): 10.0 ± 0.6%
COc1cc(S(=O)(=O)[O-])cc(/C=N/NC(N)=S)c1O.[Na+] [NaH2L4]						99.0 ± 3.5	100.2 ± 1.0	95.6 ± 3.2	85.6 ± 10.2	
CCNC(=S)N/N=C/c1cc(S(=O)(=O)[O-])cc(OC)c1O.[Na+] [NaH2L5]						98.4 ± 3.0	107.4 ± 0.9	95.6 ± 7.5	90.0 ± 4.9	
COc1cc(S(=O)(=O)[O-])cc(/C=N/NC(N)=O)c1O.[Na+] [NaH2L6]						86.5 ± 1.9	97.1 ± 0.7	85.3 ± 1.6	90.3 ± 0.8	
CCCCCCCC(=O)N/N=C/c1cc(S(=O)(=O)[O-])cc(OC)c1O.[Na+] [NaH2L7]						102.2 ± 1.9	101.9 ± 1.3	83.2 ± 2.7	87.6 ± 4.9	
Triton X-100 [reference compound]										Percentage values of hemolytic activity, hRBCs [5]: 100 ± 2.6%
